Experimental data from ChEMBL document CHEMBL3046743, “Synthesis and in vitro antimicrobial evaluation of penta-substituted pyridine derivatives bearing the quinoline nucleus” (2012).
In brackets after ≈: the same amount, converted by molar mass.

Key:
Type in all cases: functional
[1] = test system: Candida albicans; test: Antifungal activity against Candida albicans MTCC 227 after 48 hr by broth microdilution method; conditions: MTCC 227, 48 h
[2] = test system: Streptococcus pneumoniae; test: Antibacterial activity against Streptococcus pneumoniae MTCC 1936 after 24 hr by broth microdilution method; conditions: MTCC 1936, 24 h
[3] = test system: Bacillus subtilis; test: Antibacterial activity against Bacillus subtilis MTCC 441 after 24 hr by broth microdilution method; conditions: MTCC 441, 24 h
[4] = test system: Aspergillus fumigatus; test: Antifungal activity against Aspergillus fumigatus MTCC 3008 after 48 hr by broth microdilution method; conditions: MTCC 3008, 48 h
[5] = test system: Salmonella typhi; test: Antibacterial activity against Salmonella enterica subsp. enterica serovar Typhi MTCC 98 after 24 hr by broth microdilution method; conditions: MTCC 98, 24 h
[6] = test system: Clostridium tetani; test: Antibacterial activity against Clostridium tetani MTCC 449 after 24 hr by broth microdilution method; conditions: MTCC 449, 24 h
[7] = test system: Escherichia coli; test: Antibacterial activity against Escherichia coli MTCC 443 after 24 hr by broth microdilution method; conditions: MTCC 443, 24 h
[8] = test system: Vibrio cholerae; test: Antibacterial activity against Vibrio cholerae MTCC 3906 after 24 hr by broth microdilution method; conditions: MTCC 3906, 24 h

Compound | MIC [1] [µg/mL] | MIC [2] [µg/mL] | MIC [3] [µg/mL] | MIC [4] [µg/mL] | MIC [5] [µg/mL] | MIC [6] [µg/mL] | MIC [7] [µg/mL] | MIC [8] [µg/mL]
Cc1ccc2nc(Cl)c(-c3c(C#N)c(N)nc(Sc4ccccc4)c3C#N)cc2c1 | > 1000 | 250 (≈ 584 µM) | 500 (≈ 1170 µM) | > 1000 | 200 (≈ 467 µM) | 500 (≈ 1170 µM) | 200 (≈ 467 µM) | 250 (≈ 584 µM)
N#Cc1c(N)nc(Sc2ccccc2)c(C#N)c1-c1cc2cc(Cl)ccc2nc1Cl | 250 (≈ 558 µM) | 200 (≈ 446 µM) | 100 (≈ 223 µM) | 250 (≈ 558 µM) | 250 (≈ 558 µM) | 250 (≈ 558 µM) | 200 (≈ 446 µM) | 200 (≈ 446 µM)
CCn1cc(C(=O)O)c(=O)c2cc(F)c(N3CCNCC3)cc21 [NORFLOXACIN] | – | 10 (≈ 31.3 µM) | 100 (≈ 313 µM) | – | 10 (≈ 31.3 µM) | 50 (≈ 157 µM) | 10 (≈ 31.3 µM) | 10 (≈ 31.3 µM)
Cc1ccc(Sc2nc(N)c(C#N)c(-c3cc4cc(Cl)ccc4nc3Cl)c2C#N)cc1 | 250 (≈ 541 µM) | 250 (≈ 541 µM) | 200 (≈ 433 µM) | 500 (≈ 1080 µM) | 200 (≈ 433 µM) | 200 (≈ 433 µM) | 200 (≈ 433 µM) | 200 (≈ 433 µM)
CC1(C)S[C@@H]2[C@H](NC(=O)[C@H](N)c3ccccc3)C(=O)N2[C@H]1C(=O)O [AMPICILLIN] | – | 100 (≈ 286 µM) | 250 (≈ 715 µM) | – | 100 (≈ 286 µM) | 250 (≈ 715 µM) | 100 (≈ 286 µM) | 100 (≈ 286 µM)
N#Cc1c(N)nc(Sc2ccc(Cl)cc2)c(C#N)c1-c1cc2cc(Cl)ccc2nc1Cl | 200 (≈ 414 µM) | 500 (≈ 1040 µM) | 250 (≈ 518 µM) | 500 (≈ 1040 µM) | 250 (≈ 518 µM) | 500 (≈ 1040 µM) | 250 (≈ 518 µM) | 500 (≈ 1040 µM)
Cc1ccc(Sc2nc(N)c(C#N)c(-c3cc4ccc(C)cc4nc3Cl)c2C#N)cc1 | > 1000 | 200 (≈ 453 µM) | 200 (≈ 453 µM) | > 1000 | 250 (≈ 566 µM) | 200 (≈ 453 µM) | 200 (≈ 453 µM) | 200 (≈ 453 µM)
COc1ccc2nc(Cl)c(-c3c(C#N)c(N)nc(Sc4ccccc4)c3C#N)cc2c1 | 1000 (≈ 2250 µM) | 250 (≈ 563 µM) | 250 (≈ 563 µM) | 1000 (≈ 2250 µM) | 500 (≈ 1130 µM) | 200 (≈ 451 µM) | 500 (≈ 1130 µM) | 500 (≈ 1130 µM)
Cc1ccc2cc(-c3c(C#N)c(N)nc(Sc4ccc(Cl)cc4)c3C#N)c(Cl)nc2c1 | > 1000 | 250 (≈ 541 µM) | 250 (≈ 541 µM) | > 1000 | 500 (≈ 1080 µM) | 250 (≈ 541 µM) | 500 (≈ 1080 µM) | 500 (≈ 1080 µM)
N#Cc1c(N)nc(Sc2ccc(Cl)cc2)c(C#N)c1-c1cc2ccccc2nc1Cl | 1000 (≈ 2230 µM) | 250 (≈ 558 µM) | 250 (≈ 558 µM) | 1000 (≈ 2230 µM) | 150 (≈ 335 µM) | 250 (≈ 558 µM) | 100 (≈ 223 µM) | 250 (≈ 558 µM)
COc1ccc2nc(Cl)c(-c3c(C#N)c(N)nc(Sc4ccc(Cl)cc4)c3C#N)cc2c1 | 1000 (≈ 2090 µM) | 250 (≈ 523 µM) | 250 (≈ 523 µM) | > 1000 | 200 (≈ 418 µM) | 200 (≈ 418 µM) | 200 (≈ 418 µM) | 200 (≈ 418 µM)
Cc1ccc2nc(Cl)c(-c3c(C#N)c(N)nc(Sc4ccc(Cl)cc4)c3C#N)cc2c1 | 500 (≈ 1080 µM) | 200 (≈ 433 µM) | 200 (≈ 433 µM) | 500 (≈ 1080 µM) | 100 (≈ 216 µM) | 250 (≈ 541 µM) | 62.5 (≈ 135 µM) | 200 (≈ 433 µM)
N#Cc1c(N)nc(Sc2ccccc2)c(C#N)c1-c1cc2ccccc2nc1Cl | 500 (≈ 1210 µM) | 250 (≈ 604 µM) | 250 (≈ 604 µM) | 500 (≈ 1210 µM) | 200 (≈ 483 µM) | 500 (≈ 1210 µM) | 200 (≈ 483 µM) | 200 (≈ 483 µM)
COC1=CC(=O)C[C@@H](C)[C@]12Oc1c(Cl)c(OC)cc(OC)c1C2=O [GRISEOFULVIN] | 100 (≈ 283 µM) | – | – | 500 (≈ 1420 µM) | – | – | – | –
Cc1ccc(Sc2nc(N)c(C#N)c(-c3cc4ccccc4nc3Cl)c2C#N)cc1 | > 1000 | 200 (≈ 467 µM) | 250 (≈ 584 µM) | > 1000 | 100 (≈ 234 µM) | 250 (≈ 584 µM) | 100 (≈ 234 µM) | 62.5 (≈ 146 µM)
Cc1ccc2cc(-c3c(C#N)c(N)nc(Sc4ccccc4)c3C#N)c(Cl)nc2c1 | 1000 (≈ 2340 µM) | 100 (≈ 234 µM) | 100 (≈ 234 µM) | 1000 (≈ 2340 µM) | 200 (≈ 467 µM) | 200 (≈ 467 µM) | 100 (≈ 234 µM) | 250 (≈ 584 µM)
COc1ccc2nc(Cl)c(-c3c(C#N)c(N)nc(Sc4ccc(C)cc4)c3C#N)cc2c1 | > 1000 | 500 (≈ 1090 µM) | 500 (≈ 1090 µM) | > 1000 | 500 (≈ 1090 µM) | 500 (≈ 1090 µM) | 500 (≈ 1090 µM) | 500 (≈ 1090 µM)
Cc1ccc(Sc2nc(N)c(C#N)c(-c3cc4cc(C)ccc4nc3Cl)c2C#N)cc1 | 250 (≈ 566 µM) | 100 (≈ 226 µM) | 100 (≈ 226 µM) | 500 (≈ 1130 µM) | 200 (≈ 453 µM) | 500 (≈ 1130 µM) | 250 (≈ 566 µM) | 500 (≈ 1130 µM)
